4 compounds from article PMC7611903, “DYW domain structures imply an unusual regulation principle in plant organellar RNA editing catalysis” (Nature catalysis, 2021) can be followed below.

Assay [1] addresses T1, OTP86^DYW (Arabidopsis thaliana, UniProt Q9M1V3).
T1 construct: gene PCMP-H83; isolated DYW domain, residues 826-960; N-terminal Strep-tag cut by TEV, GAM left; E. coli Rosetta2 (DE3); about 15 kDa, monomer
T1 sequence (Q9M1V3 826-960): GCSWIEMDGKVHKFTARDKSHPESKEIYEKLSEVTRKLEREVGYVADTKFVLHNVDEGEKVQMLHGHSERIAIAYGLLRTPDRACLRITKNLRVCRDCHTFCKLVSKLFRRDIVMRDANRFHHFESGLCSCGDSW
In words: differential scanning fluorimetry (SYPRO orange). The assay is classed as binding. Particulars: 20 mM Tris pH 7.5, 150 mM NaCl, destabilizing. On the technique in general: In DSF a fluorescence change marks the thermal transition of the protein.

For the next assay, the target named is T2, PPR56 (Physcomitrium patens, UniProt A0A2K1IWP1).
T2 construct: gene LOC112295756; recombinant from pETG41K::PPR56 (His-MBP fusion), amylose-purified from E. coli; tag kept; PPR tract, E1, E2 and DYW domain
T2 sequence (A0A2K1IWP1 entry or part of it): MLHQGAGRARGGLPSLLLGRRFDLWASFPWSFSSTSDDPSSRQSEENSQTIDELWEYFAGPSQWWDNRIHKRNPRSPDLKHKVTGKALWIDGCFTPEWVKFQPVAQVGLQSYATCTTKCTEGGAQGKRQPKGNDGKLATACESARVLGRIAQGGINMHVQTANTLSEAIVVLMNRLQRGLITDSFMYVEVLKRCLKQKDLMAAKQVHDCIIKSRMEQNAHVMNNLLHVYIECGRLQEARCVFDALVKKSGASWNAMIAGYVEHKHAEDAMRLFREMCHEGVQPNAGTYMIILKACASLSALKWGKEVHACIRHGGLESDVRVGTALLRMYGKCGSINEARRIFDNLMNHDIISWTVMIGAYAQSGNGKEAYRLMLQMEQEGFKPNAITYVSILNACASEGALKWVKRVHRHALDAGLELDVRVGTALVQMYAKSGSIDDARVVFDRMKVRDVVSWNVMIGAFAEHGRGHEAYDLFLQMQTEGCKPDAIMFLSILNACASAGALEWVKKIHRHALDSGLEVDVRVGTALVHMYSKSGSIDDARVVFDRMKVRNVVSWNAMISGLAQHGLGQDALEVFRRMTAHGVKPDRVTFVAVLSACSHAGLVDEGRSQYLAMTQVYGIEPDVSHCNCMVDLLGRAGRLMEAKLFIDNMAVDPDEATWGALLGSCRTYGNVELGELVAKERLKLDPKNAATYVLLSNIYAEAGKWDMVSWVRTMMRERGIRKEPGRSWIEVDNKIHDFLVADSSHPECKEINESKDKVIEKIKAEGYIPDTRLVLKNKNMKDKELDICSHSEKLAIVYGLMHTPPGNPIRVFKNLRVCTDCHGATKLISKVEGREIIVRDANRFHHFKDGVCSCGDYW
The assay is described as follows: in vitro C-to-U RNA editing, RT-PCR sequencing. The assay is classed as biochemical. Particulars: nad4 RNA substrate, pH 7.5, 16 °C, activator.

The target in assay [2] is T3, OTP86^DYW (Arabidopsis thaliana, UniProt Q9M1V3, L917A).
T3 construct: gene PCMP-H83; isolated DYW domain, residues 826-960; N-terminal Strep-tag cut by TEV, GAM left; E. coli Rosetta2 (DE3); about 15 kDa, monomer
T3 sequence (Q9M1V3 826-960 L917A): T1 sequence (Q9M1V3 826-960) with L92A
The assay is described as follows: differential scanning fluorimetry (SYPRO orange). Particulars: 20 mM Tris pH 7.5, 150 mM NaCl; destabilizing. The assay is classed as binding.

For assay [3], the target named is T4, OTP86^DYW (Arabidopsis thaliana, UniProt Q9M1V3, H892C).
T4 construct: gene PCMP-H83; isolated DYW domain, residues 826-960; N-terminal Strep-tag cut by TEV, GAM left; E. coli Rosetta2 (DE3); about 15 kDa, monomer
T4 sequence (Q9M1V3 826-960 H892C): T1 sequence (Q9M1V3 826-960) with H67C
In words: differential scanning fluorimetry (SYPRO orange). The assay is classed as binding. The settings on record: 20 mM Tris pH 7.5, 150 mM NaCl; destabilizing.

Assay [4] addresses T5, OTP86^DYW (Arabidopsis thaliana, UniProt Q9M1V3, K915A).
T5 construct: gene PCMP-H83; isolated DYW domain, residues 826-960; N-terminal Strep-tag cut by TEV, GAM left; E. coli Rosetta2 (DE3); about 15 kDa, monomer
T5 sequence (Q9M1V3 826-960 K915A): T1 sequence (Q9M1V3 826-960) with K90A
In words: differential scanning fluorimetry (SYPRO orange). Particulars: 20 mM Tris pH 7.5, 150 mM NaCl; destabilizing. The assay is classed as binding.

Numbering of substitutions follows the chain as printed.

Turning to `Nc1ncnc2c1ncn2[C@@H]1O[C@H](COP(=O)(O)OP(=O)(O)CP(=O)(O)O)[C@@H](O)[C@H]1O` [AMPPCP], the Tm on OTP86^DYW [1] (non-hydrolysable ATP analogue) is 68 °C.
In the case of `Nc1nc2c(ncn2[C@@H]2O[C@H](COP(=O)(O)OP(=O)(O)OP(=O)(O)O)[C@@H](O)[C@H]2O)c(=O)[nH]1` [GTP], the Tm at OTP86^DYW [1] (2 mM GTP, reversible, activator) was 65.3 °C. Further, on PPR56, the “in vitro C-to-U RNA editing, RT-PCR sequencing” value (“in vitro C-to-U RNA editing” below) was “GTP also activate both PPR proteins in a concentration-dependent manner”.
`O=C1NC(O)CCN1[C@@H]1O[C@H](CO)[C@@H](O)[C@H]1O` (stereo partly drawn) [tetrahydrouridine]: the Tm result at OTP86^DYW [2] is “The L917A mutation showed a prominent decrease in T m when THU was added”; at OTP86^DYW [3], “The H892C mutant closely resembles the wild-type protein regarding activation, albeit less pronounced”; at OTP86^DYW [1] (reversible, activator), 60 °C; on OTP86^DYW [4], “this effect is less severe with the K915A mutation”. Moreover, on PPR56, the “in vitro C-to-U RNA editing” value is given as “THU increases deaminase activity markedly for both proteins in a concentration-dependent manner”.
With `Nc1ncnc2c1ncn2[C@@H]1O[C@H](COP(=O)(O)OP(=O)(O)OP(=O)(O)O)[C@@H](O)[C@H]1O` [ATP], the Tm entry at OTP86^DYW [2] is “a milder effect with ATP comparable to wild type was observed”; on OTP86^DYW [3] it was “we assessed the T m of H892C in the presence of the activators”; on OTP86^DYW [1] (2 mM ATP, reversible, activator) it was 65 °C. Further, the “in vitro C-to-U RNA editing” value at PPR56 (may be allosteric) was “ATP activates PPR56 and PPR56^PPRE1E2–OTP86^DYW in a concentration-dependent fashion”.
